In US20190192618A1 (priority 2016, published 2019):
Where two headings read alike, the source gives them in different places. Bridge positions count the residues as written; N and C are the ends. Square brackets hold non-standard residues; d marks the D form. Peptide text beside a SMILES is read from it. Dab = NCC[C@H](N)C(=O)O

Tests used:
[1] = biological target: T1, hERG potassium channel (Homo sapiens, UniProt Q12809); test: hERG current inhibition, single cell patch clamp in HEK293 cells; format: cell-based
T1 construct: expressed in transfected cells
T1 sequence (Q12809 whole entry): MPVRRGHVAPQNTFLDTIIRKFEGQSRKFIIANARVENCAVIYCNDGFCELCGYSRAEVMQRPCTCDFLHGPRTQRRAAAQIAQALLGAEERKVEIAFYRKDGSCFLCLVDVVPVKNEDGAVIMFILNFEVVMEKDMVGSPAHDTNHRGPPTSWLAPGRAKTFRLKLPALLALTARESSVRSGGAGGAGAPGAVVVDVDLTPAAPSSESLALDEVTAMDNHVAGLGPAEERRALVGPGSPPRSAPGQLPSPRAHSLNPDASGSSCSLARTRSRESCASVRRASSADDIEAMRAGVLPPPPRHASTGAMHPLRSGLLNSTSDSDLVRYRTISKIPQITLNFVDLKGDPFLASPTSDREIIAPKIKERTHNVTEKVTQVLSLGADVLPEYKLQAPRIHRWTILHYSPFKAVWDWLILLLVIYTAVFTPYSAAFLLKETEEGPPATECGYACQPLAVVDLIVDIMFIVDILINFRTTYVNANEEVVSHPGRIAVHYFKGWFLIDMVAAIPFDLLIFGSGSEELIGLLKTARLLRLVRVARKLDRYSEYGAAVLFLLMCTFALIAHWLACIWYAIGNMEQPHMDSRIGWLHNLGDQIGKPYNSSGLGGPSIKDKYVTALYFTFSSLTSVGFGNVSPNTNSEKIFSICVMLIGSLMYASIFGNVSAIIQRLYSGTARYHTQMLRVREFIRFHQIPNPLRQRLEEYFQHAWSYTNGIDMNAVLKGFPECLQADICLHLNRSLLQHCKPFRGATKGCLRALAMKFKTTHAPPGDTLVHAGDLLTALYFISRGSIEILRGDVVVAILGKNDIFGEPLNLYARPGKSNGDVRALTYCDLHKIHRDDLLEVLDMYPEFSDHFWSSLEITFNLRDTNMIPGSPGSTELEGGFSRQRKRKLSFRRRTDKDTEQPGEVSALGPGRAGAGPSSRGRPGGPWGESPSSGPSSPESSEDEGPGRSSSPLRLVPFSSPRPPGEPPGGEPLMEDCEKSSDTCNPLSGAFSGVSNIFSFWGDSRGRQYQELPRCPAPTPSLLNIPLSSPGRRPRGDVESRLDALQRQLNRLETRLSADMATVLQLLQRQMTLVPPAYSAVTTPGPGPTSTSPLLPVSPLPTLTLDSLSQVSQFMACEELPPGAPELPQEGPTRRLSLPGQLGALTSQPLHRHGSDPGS
Description: Currents were recorded via single cell patch clamp.

[2] = GLP 14 day repeat dose study in rats, toxicology; settings: rat
Description: Parameters assessed during the in-life phase of the study included weekly body weights, clinical observations, survival, food consumption, ophthalmology, clinical pathology, and urine and plasma toxicokinetics. At necropsy, gross observations were recorded, organ weights were measured, and specific tissues were collected. Histopathologic assessment was conducted on tissue sections stained with hematoxylin and eosin (H&E).
The use of an escalation phase was due to the acute histamine and/or complement mediated reactions commonly seen in rats with a broad range of polymyxins.
For toxicology assessment, all animals were observed twice daily for mortality and moribundity. Clinical examinations were performed daily, and detailed physical examinations were performed weekly. Ophthalmic examinations were performed during once prior to study initiation and once during the study. Clinical pathology parameters (including Blood Urea Nitrogen and Serum Creatinine) were analyzed for all animals assigned to the scheduled necropsies. Complete necropsies were conducted on all animals, and selected organs were weighed at the scheduled necropsies. […] Gross lesions and infusion sites were examined from all animals in the low-dose group at the primary necropsy. Recovery was assessed in the mid-dose group and the control group following a 28-day non-dosing period. Following the 28-day non-dosing (recovery) period, complete necropsies were conducted on all animals, and selected organs were weighed at the scheduled necropsy. Selected tissues were examined microscopically from all animals.

[3] = GLP 14 day repeat dose toxicology study in monkeys incl. CNS assessment; settings: cynomolgus monkey, in vivo
Description: Histopathologic assessment was conducted on tissue sections stained with hematoxylin and eosin (H&E).
The neurological assessment was performed on study day 9 or 10 and compared to both pre-test data (study day −6 or −7) as well as the vehicle control.

[4] = Cardiopulmonary safety pharmacology study in monkeys; settings: for Body Temperature / Heart Rate / Mean Arterial Blood Pressure / QTc Interval / Respiratory Rate: monkey, in vivo
Description: The monkeys in the study were telemeterized prior to study start. Data was collected in one minute intervals over a 24 hour period. The data was reported in 15 minute intervals over the first three hours.

[5] = Efficacy studies in mice (mouse thigh studies); format: in vivo; settings: mouse thigh studies with SPR741 and rifampin
Description: A 70 kg human weight was used in all models.
Pharmacologic HED was then calculated using the equation below: […]

[6] = rat, following 14 days of repeated dosing
[7] = in vivo; settings: male, mouse, plasma, 10 mg/kg
Description: (§1) PK analysis was performed using Phoenix® WinNonlin® Version 6.3 (Pharsight Corp. [Mountain View, Calif.]). […] The standard species body weights were assumed to perform allometric scaling purposes. For scaling, mouse, rat, monkey, and human weight were assumed to be 0.02, 0.25, 5, and 70 kg, respectively. PK data from only male animals were available for scaling.
(§2) A MixRatio (additive and multiplicative) weighting was applied for all PK modeling.
(§3) Single dose simulations were done using the low clearance estimate and high clearance estimate obtained from allometric scaling. […] Day 1 data was unavailable for rat. Only 2-3 measurable time points were used in the mouse PK data.

[8] = in vivo; settings: male, rat, plasma, 10 mg/kg
Description: as §1, §2, §3

[9] = in vivo; settings: male, monkey, plasma, 20 mg/kg
Description: as §1, §2, §3

[10] = in vivo; settings: Sprague-Dawley, rat, plasma, iv, 1-hour IV infusion twice daily; for AUC(0-t): AUC(0-24)
[11] = human, fixed exponent, monkey PK data
[12] = human, fixed exponent, mouse PK data
[13] = human, fixed exponent, rat PK data
[14] = human, floating exponent, mouse, rat and monkey PK data
[15] = human, floating exponent, rat and monkey PK data
[16] = 5 mg/kg/day, 5 mg/kg/day, study day 1
[17] = 5 mg/kg/day, 5 mg/kg/day, study day 14
[18] = 10 mg/kg/day, 10 mg/kg/day, study day 1
[19] = 10 mg/kg/day, 10 mg/kg/day, study day 14
[20] = 15 mg/kg/day, 15 mg/kg/day, study day 1
[21] = 15 mg/kg/day, 15 mg/kg/day, study day 14

SMILES: COc1cc(N)c(Cl)cc1C(=O)NC1CCN(CCCOc2ccc(F)cc2)CC1OC (stereo not shown) [Cisapride, reference compound]
- inhibition at 0.047 μg/mL ([1]; human): 79.8%

SMILES: CC(=O)N[C@H](C(=O)N[C@H](CO)C(=O)N[C@H]1CCNC(=O)[C@H]([C@@H](C)O)NC(=O)[C@H](CCN)NC(=O)[C@H](CCN)NC(=O)[C@H](CC(C)C)NC(=O)[C@@H](Cc2ccccc2)NC(=O)[C@H](CCN)NC1=O)[C@@H](C)O [SPR741, Acetyl-Thr-dSer-cy[Dab-Dab-dPhe-Leu-Dab-Dab-Thr]] (Ac-T[dS][Dab][Dab][dF]L[Dab][Dab]T; lactam 3-C)
- IC50 [1]: could not be calculated
- Change in mean hERG-mediated potassium currents ([1]; concentrations up to 300 μg/mL): no meaningful change
- inhibition at 10 μg/mL ([1]; human): 0.08%
- inhibition at 30 μg/mL ([1]; human): -0.09%
- inhibition at 100 μg/mL ([1]; human): 1.62%
- inhibition at 300 μg/mL ([1]; human): 3.87%
- Tolerability ([2]; dose levels higher than 5 mg/kg): exhibited toxicity
- Tolerability ([2]; in vivo, 5 mg/kg): well tolerated
- % BUN increase relative to control (mg/dL) ([2]; in vivo, 10 mg/kg/day): 34%
- % BUN increase relative to control (mg/dL) ([2]; in vivo, 15 mg/kg/day): 59%
- % Control CRN ([2]; in vivo, 15 mg/kg/day): 59%
- NOAEL at 14 days ([3]; both): 40 mg/kg/day
- Reversibility of nephrotoxicity [3]: fully reversible
- Body Temperature ([4]; 5 mg/kg): 38.3 °C
- Heart Rate ([4]; 5 mg/kg): 142 bpm
- Mean Arterial Blood Pressure ([4]; 5 mg/kg): 105 mm Hg
- QTc Interval ([4]; 5 mg/kg): 220 ms
- Respiratory Rate ([4]; 5 mg/kg): 27
- Body Temperature ([4]; 10 mg/kg): 38.3 °C
- Heart Rate ([4]; 10 mg/kg): 141 bpm
- Mean Arterial Blood Pressure ([4]; 10 mg/kg): 104 mm Hg
- QTc Interval ([4]; 10 mg/kg): 222 ms
- Respiratory Rate ([4]; 10 mg/kg): 25
- Body Temperature ([4]; 20 mg/kg): 38.7 °C
- Heart Rate ([4]; 20 mg/kg): 145 bpm
- Mean Arterial Blood Pressure ([4]; 20 mg/kg): 97 mm Hg
- QTc Interval ([4]; 20 mg/kg): 220 ms
- Respiratory Rate ([4]; 20 mg/kg): 26
- SPR741-related clinical signs or changes in body weight, body temperature, blood pressures, heart rate, ECG intervals, respiratory rate, tidal volume, minute volume ([4]; monkeys, cardiopulmonary study): no SPR741-related clinical signs
- AUC value of efficacy data [5]: 60 µg·h/mL
- CL (human 70 kg, fixed exponent, monkey PK data): 70.8 mg/h/kg
- CL (human 70 kg, fixed exponent, mouse PK data): 57.5 mg/h/kg
- CL (human 70 kg, fixed exponent, rat PK data): 103 mg/h/kg
- CL [11]: 1.18 mL/min/kg
- T1/2 [11]: 2.33 h
- CL [12]: 0.958 mL/min/kg
- T1/2 [12]: 2.16 h
- Vd [12]: 0.179 L/kg
- CL [13]: 1.72 mL/min/kg
- T1/2 [13]: 2.31 h
- Vd [13]: 0.345 L/kg
- CL [14]: 1.5 mL/min/kg
- T1/2 [14]: 2.44 h
- Vd [14]: 0.315 L/kg
- CL [15]: 0.847 mL/min/kg
- T1/2 [15]: 2.34 h
- Vd [15]: 0.172 L/kg
- Systemic exposure versus dose [6]: dose dependent proportional systemic exposure
- Vd [7]: 0.179 L/kg
- clearance [7]: 7.37 mL/min/kg
- Vd [8]: 0.345 L/kg
- clearance [8]: 7.05 mL/min/kg
- Vd [9]: 0.238 L/kg
- clearance [9]: 2.28 mL/min/kg
- AUC(0-t) [10, 16]: 8200 ng·h/mL
- AUC(0-t) [10, 17]: 8300 ng·h/mL
- Cmax [10, 16]: 3400 ng/mL
- Cmax [10, 17]: 3300 ng/mL
- AUC(0-t) [10, 18]: 25000 ng·h/mL
- AUC(0-t) [10, 19]: 20300 ng·h/mL
- Cmax [10, 18]: 9500 ng/mL
- Cmax [10, 19]: 6700 ng/mL
- AUC(0-t) [10, 20]: 47400 ng·h/mL
- AUC(0-t) [10, 21]: 32900 ng·h/mL
- Cmax [10, 20]: 14900 ng/mL
- Cmax [10, 21]: 10800 ng/mL
